The record followed here is ChEMBL document CHEMBL1155947, “Discovery of a novel series of benzoic acid derivatives as potent and selective human beta3 adrenergic receptor agonists with good oral bioavailability. 3. Phenylethanolaminotetraline (PEAT) skeleton containing biphenyl or biphenyl ether moiety” (J Med Chem, 2008).

For data set [1], the target named is Beta-3 adrenergic receptor (Homo sapiens, UniProt P13945). Briefly: Agonist activity at human cloned beta3 adrenergic receptor expressed in CHO cells assessed as cAMP accumulation. Type of data set: functional, cell-based. On the technique in general: cAMP levels reflect the balance of adenylyl cyclase and phosphodiesterase activity.
Beta-3 adrenergic receptor, sequence (P13945 whole entry): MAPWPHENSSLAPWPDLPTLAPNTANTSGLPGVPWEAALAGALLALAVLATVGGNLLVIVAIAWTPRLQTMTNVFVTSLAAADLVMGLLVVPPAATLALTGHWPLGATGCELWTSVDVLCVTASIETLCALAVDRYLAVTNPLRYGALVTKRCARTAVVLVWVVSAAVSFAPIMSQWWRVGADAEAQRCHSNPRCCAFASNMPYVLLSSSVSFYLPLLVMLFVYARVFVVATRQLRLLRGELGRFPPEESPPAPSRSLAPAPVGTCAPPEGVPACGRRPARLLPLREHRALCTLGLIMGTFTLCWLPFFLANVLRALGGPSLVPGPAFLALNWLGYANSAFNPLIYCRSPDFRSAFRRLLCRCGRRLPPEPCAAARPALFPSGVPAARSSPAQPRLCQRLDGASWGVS
Data set [2] deals with Beta-1 adrenergic receptor (Homo sapiens, UniProt P08588).
Beta-1 adrenergic receptor, sequence (P08588 whole entry): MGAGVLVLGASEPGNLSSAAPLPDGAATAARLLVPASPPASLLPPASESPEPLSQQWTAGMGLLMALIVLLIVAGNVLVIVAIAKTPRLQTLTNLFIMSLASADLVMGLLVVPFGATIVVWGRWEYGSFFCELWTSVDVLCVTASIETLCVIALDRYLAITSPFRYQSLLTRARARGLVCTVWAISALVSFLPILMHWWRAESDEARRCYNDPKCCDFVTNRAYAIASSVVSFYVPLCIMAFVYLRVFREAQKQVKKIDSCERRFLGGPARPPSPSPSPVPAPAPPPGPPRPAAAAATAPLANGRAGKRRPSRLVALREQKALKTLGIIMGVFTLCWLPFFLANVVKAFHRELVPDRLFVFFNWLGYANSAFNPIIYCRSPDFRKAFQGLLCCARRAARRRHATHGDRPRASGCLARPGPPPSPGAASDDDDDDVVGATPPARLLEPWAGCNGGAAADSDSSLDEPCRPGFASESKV
Description: Agonist activity at human cloned beta-1 adrenergic receptor expressed in CHO cells assessed as cAMP accumulation
For another data set, the species on record is Homo sapiens. Briefly: Ratio of EC50 for human cloned beta-1 adrenergic receptor to EC50 for human cloned beta3 adrenergic receptor.
In data set [3] the target is Beta-2 adrenergic receptor (Homo sapiens, UniProt P07550). Briefly: Agonist activity at human beta2 adrenergic receptor expressed in CHO cells assessed as cAMP accumulation. Type of data set: functional, cell-based.
Beta-2 adrenergic receptor, sequence (P07550 whole entry): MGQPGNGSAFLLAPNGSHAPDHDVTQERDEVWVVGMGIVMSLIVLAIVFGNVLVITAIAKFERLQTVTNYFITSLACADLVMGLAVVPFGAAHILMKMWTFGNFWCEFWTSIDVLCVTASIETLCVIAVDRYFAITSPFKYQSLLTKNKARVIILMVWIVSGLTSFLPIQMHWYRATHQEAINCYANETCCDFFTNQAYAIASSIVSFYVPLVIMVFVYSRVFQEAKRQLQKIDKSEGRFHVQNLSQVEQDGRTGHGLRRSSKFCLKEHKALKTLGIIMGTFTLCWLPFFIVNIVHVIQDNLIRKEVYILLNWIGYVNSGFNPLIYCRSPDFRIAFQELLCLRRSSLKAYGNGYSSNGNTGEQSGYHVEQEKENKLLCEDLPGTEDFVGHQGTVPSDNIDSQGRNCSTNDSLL
For data set [4], the system named is Canis familiaris. Briefly: Ratio of AUC for drug to AUC for 3-[((7S)-7-{[(2R)-2-(3-Chlorophenyl)-2-hydroxyethyl]amino}-5,6,7,8-tetrahydro-2-naphthalenyl)oxy]benzoic acid hydrochloride in dog at 0.1 or 0.20 mg/kg, po by cassette dosing assay. Type of data set: ADME, organism-based, Canis lupus familiaris. More on the design: dose 0.2 mg/kg, route oral. The note with it: in vivo, 0.2 mg/kg.

For data set [5], the system named is Canis familiaris. Briefly: Ratio of Cmax for drug to Cmax for 3-[((7S)-7-{[(2R)-2-(3-Chlorophenyl)-2-hydroxyethyl]amino}-5,6,7,8-tetrahydro-2-naphthalenyl)oxy]benzoic acid hydrochloride in dog at 0.1 or 0.20 mg/kg, po by cassette dosing assay. The note with it: in vivo, 0.2 mg/kg. Type of data set: ADME, organism-based, Canis lupus familiaris. Also noted: dose 0.2 mg/kg, route oral.

pEC50: −log10 of the molar value.

For the compound `Cc1cc(-c2ccc3c(c2)C[C@@H](NC[C@H](O)c2ccc(Cl)cc2)CC3)ccc1C(=O)O`, the negative-log EC50 (pEC50) (commonly the EC50 on a negative log10 scale, so that one unit is a factor of ten) in data set [1] is 8.74; in data set [2], 6.08. For the same compound, the Ratio EC50 in the data set listed under Homo sapiens worked out at 458.

For the compound `O=C(O)c1ccc(-c2ccc3c(c2)C[C@@H](NC[C@H](O)c2ccc(Cl)cc2)CC3)cc1F`, the pEC50 in data set [1] is 9.09; in data set [2], 6.19. Further, in the data set filed under Homo sapiens, the Ratio EC50 was found to be 802.

With `O=C(O)c1ccc(-c2ccc3c(c2)C[C@@H](NC[C@H](O)c2cccc(Cl)c2)CC3)nc1`, the pEC50 in data set [1] is 8.02; in data set [2], 6.31. Besides, in the data set listed under Homo sapiens, the Ratio EC50 was found to be 51.

Take `COc1ccc(Oc2ccc3c(c2)C[C@@H](NC[C@H](O)c2cccc(Cl)c2)CC3)cc1C(=O)O`: the figures for the pEC50 in data set [1], in data set [2] and in data set [3] were 8.22, less than 6.00 and less than 6.00, respectively. In the data set filed under Homo sapiens, the Ratio EC50 was more than 166.

For `O=C(O)c1ccc(-c2ccc3c(c2)C[C@@H](NC[C@H](O)c2ccccc2Cl)CC3)cc1`, the pEC50 was 7.42 in data set [1] and 6.21 in data set [2]. In addition, in the data set listed under Homo sapiens, the Ratio EC50 was found to be 16.3.

Consider `O=C(O)c1cc(Oc2ccc3c(c2)C[C@@H](NC[C@H](O)c2cccc(Cl)c2)CC3)ccc1Cl`, for which the values for the negative logarithm of the EC50 (pEC50) in data set [1] and in data set [2] were 7.80 and less than 6.00, respectively. For the same compound, the Ratio EC50 in the data set listed under Homo sapiens was more than 62.

On to `O=C(O)COc1ccc(Oc2ccc3c(c2)C[C@@H](NC[C@H](O)c2cccc(Cl)c2)CC3)cc1`, for which the pEC50 in data set [1] is 7.62; in data set [2], less than 7.00. For the same compound, the Ratio EC50 in the data set filed under Homo sapiens is more than 4.2.

As for `O=C(O)c1cccc(-c2ccc3c(c2)C[C@@H](NC[C@H](O)c2cccc(Cl)c2)CC3)c1`, the negative logarithm of the EC50 (pEC50) is 7.54 in data set [1] and less than 7.00 in data set [2]. For the same compound, in the data set listed under Homo sapiens, the Ratio EC50 was more than 3.4.

As to `O=C(O)c1cc(NC2CCCCC2)cc(Oc2ccc3c(c2)C[C@@H](NC[C@H](O)c2cccc(Cl)c2)CC3)c1`, the negative logarithm of the EC50 (pEC50) in data set [1] is 9.11; in data set [2], 7.16. For the same compound, the Ratio EC50 in the data set listed under Homo sapiens is 88.

As for `O=C(O)c1cccc(Oc2ccc3c(c2)C[C@@H](NC[C@H](O)c2ccc(Cl)nc2)CC3)c1`, the negative logarithm of the EC50 (pEC50) in data set [1] was 8.39; in data set [2], 6.85. The Ratio EC50 in the data set listed under Homo sapiens worked out at 34.

With `O=C(O)COc1cccc(-c2ccc3c(c2)C[C@@H](NC[C@H](O)c2cccc(Cl)c2)CC3)c1`, the pEC50 in data set [1] was 8.00; in data set [2] it was less than 7.00. In addition, in the data set filed under Homo sapiens, the Ratio EC50 was more than 10.

`O=C(O)c1cccc(Oc2ccc3c(c2)C[C@@H](NC[C@H](O)c2cccnc2)CC3)c1`: the pEC50 in data set [1] was 7.70; in data set [2] it was less than 7.00. For the same compound, the “Ratio AUC” value with Canis familiaris [4] is 0.32. For the same compound, the Ratio in the data set on Canis familiaris [5] is on record as 0.5. In the data set filed under Homo sapiens, the Ratio EC50 was more than 5.

As to `CC(=O)Nc1cc(Oc2ccc3c(c2)C[C@@H](NC[C@H](O)c2cccc(Cl)c2)CC3)cc(C(=O)O)c1`, the pEC50 in data set [1] was 8.89; in data set [2] it was 6.44. Further, in the data set with Canis familiaris [4], the “Ratio AUC” value was determined as 0.06. Also, the Ratio with Canis familiaris [5] is 0.1. Further, in the data set listed under Homo sapiens, the Ratio EC50 is 277.

Regarding `O=C(O)c1ccc(Oc2ccc3c(c2)C[C@@H](NC[C@H](O)c2cccc(Cl)c2)CC3)s1`, the pEC50 in data set [1] was 8.24; in data set [2], 6.17; in data set [3] it was less than 6.00. Moreover, in the data set listed under Homo sapiens, the Ratio EC50 was 117.

As to `O=C(O)c1ccc(Oc2ccc3c(c2)C[C@@H](NC[C@H](O)c2cccc(Cl)c2)CCC3)cc1`, the pEC50 in data set [1] and in data set [2] was less than 7.00 each time.

As to `O=C(O)c1cc(NC2CCOCC2)cc(Oc2ccc3c(c2)C[C@@H](NC[C@H](O)c2cccc(Cl)c2)CC3)c1`, the pEC50 in data set [1] is 9.00; in data set [2], 6.47. Further, the “Ratio AUC” value in the data set with Canis familiaris [4] is 0.02. For the same compound, the Ratio with Canis familiaris [5] is on record as 0.06. The Ratio EC50 in the data set listed under Homo sapiens was found to be 340.

Turning to `O=C(O)c1ccc(Oc2ccc3c(c2)C[C@@H](NC[C@H](O)c2cccc(Cl)c2)CC3)cc1`, the pEC50 is 7.43 in data set [1] and less than 7.00 in data set [2]. In addition, in the data set filed under Homo sapiens, the Ratio EC50 is more than 2.7.

On to `Nc1cc(Oc2ccc3c(c2)C[C@@H](NC[C@H](O)c2cccc(Cl)c2)CC3)cc(C(=O)O)c1`, for which the pEC50 was 8.49 in data set [1] and 6.32 in data set [2]. Further, in the data set with Canis familiaris [4], the “Ratio AUC” value was 0.2. In addition, the Ratio in the data set with Canis familiaris [5] stood at 0.26. In the data set listed under Homo sapiens, the Ratio EC50 was 150.

As for `N#Cc1ccc([C@@H](O)CN[C@H]2CCc3ccc(-c4ccc(C(=O)O)cc4)cc3C2)cc1`, the pEC50 in data set [1] is 7.55; in data set [2], less than 6.00. For the same compound, the Ratio EC50 in the data set filed under Homo sapiens was more than 36.

`O=C(O)c1ccc(-c2ccc3c(c2)C[C@@H](NC[C@H](O)c2cccc(Cl)c2)CCC3)cc1`: the pEC50 in data set [1] and in data set [2] was less than 7.00 throughout.

Turning to `CN(C)c1cc(Oc2ccc3c(c2)C[C@@H](NC[C@H](O)c2ccc(Cl)nc2)CC3)cc(C(=O)O)c1`, the pEC50 in data set [1] was 8.74; in data set [2], 6.57. For the same compound, in the data set filed under Homo sapiens, the Ratio EC50 was 155.

For the compound `O=C(O)c1ccc(-c2ccc3c(c2)C[C@@H](NC[C@H](O)c2ccc(C(F)(F)F)cc2)CC3)cc1`, the pEC50 in data set [1] is 8.46; in data set [2], 6.11; in data set [3], less than 6.00. Further, the Ratio EC50 in the data set listed under Homo sapiens was determined as 221.

In the case of `O=C(O)COc1cccc(Oc2ccc3c(c2)C[C@@H](NC[C@H](O)c2cccc(Cl)c2)CC3)c1`, the figures for the pEC50 in data set [1] and in data set [2] were 7.66 and less than 7.00, respectively. In addition, the Ratio EC50 in the data set listed under Homo sapiens was more than 4.5.

Consider `Cc1ccc(Oc2ccc3c(c2)C[C@@H](NC[C@H](O)c2cccc(Cl)c2)CC3)cc1C(=O)O`, for which the pEC50 was 8.05 in data set [1] and less than 6.00 in data set [2]. Besides, the Ratio EC50 in the data set filed under Homo sapiens was more than 111.

For the compound `CCCNc1cc(Oc2ccc3c(c2)C[C@@H](NC[C@H](O)c2cccc(Cl)c2)CC3)cc(C(=O)O)c1`, the pEC50 in data set [1] was 9.11; in data set [2] it was 6.76. Also, in the data set listed under Homo sapiens, the Ratio EC50 was 224.

For `COc1cc(Oc2ccc3c(c2)C[C@@H](NC[C@H](O)c2cccc(Cl)c2)CC3)cc(C(=O)O)c1`, the negative logarithm of the EC50 (pEC50) in data set [1] is 8.28; in data set [2], 6.05; in data set [3], less than 6.00. The Ratio EC50 in the data set filed under Homo sapiens was 168.

`O=C(O)c1cccnc1Oc1ccc2c(c1)C[C@@H](NC[C@H](O)c1cccc(Cl)c1)CC2`: the pEC50 in data set [1] is 7.31; in data set [2] it was less than 7.00. Also, in the data set listed under Homo sapiens, the Ratio EC50 is more than 2.

Regarding `O=C(O)c1ccc(-c2ccc3c(c2)C[C@@H](NC[C@H](O)c2cccc(Cl)c2)CC3)s1`, the figures for the negative-log EC50 (pEC50) in data set [1] and in data set [2] were 8.62 and less than 6.00, respectively. Also, the Ratio EC50 in the data set listed under Homo sapiens is more than 417.

As for `O=C(O)c1ccc(-c2ccc3c(c2)C[C@@H](NC[C@H](O)c2ccc(Cl)c(Cl)c2)CC3)cc1`, the values for the negative logarithm of the EC50 (pEC50) in data set [1] and in data set [2] were 7.48 and less than 6.00, respectively. In addition, in the data set filed under Homo sapiens, the Ratio EC50 was more than 30.

As to `O=C(O)c1cccc(Oc2ccc3c(c2)C[C@@H](NC[C@H](O)c2ccc(Cl)cc2)CC3)c1`, the pEC50 in data set [1] is 8.32; in data set [2], 6.48. In addition, the Ratio EC50 in the data set filed under Homo sapiens came to 69.

For the compound `CC(C)Oc1cc(-c2ccc3c(c2)C[C@@H](NC[C@H](O)c2ccc(Cl)cc2)CC3)ccc1C(=O)O`, the values for the pEC50 in data set [1] and in data set [2] were 9.15 and 6.51, respectively. In addition, the Ratio EC50 in the data set filed under Homo sapiens was determined as 443.

Consider `O=C(O)c1ccc(-c2ccc3c(c2)C[C@@H](NC[C@H](O)c2cccnc2)CC3)cc1`, for which the figures for the pEC50 in data set [1] and in data set [2] were 7.89 and less than 6.00, respectively. Further, the Ratio EC50 in the data set filed under Homo sapiens was more than 77.
